Results from ChEMBL document CHEMBL1201862, “PubChem BioAssay data set” (2004).
Active and inactive are the calls of the source.

What was measured:
HEK293 = assay: HEK293T cell cytotoxicity, dose response, cytotoxicity control, ATP luminescence, cherry-pick samples (AID 687005); assay type: functional, cell-based; settings: Homo sapiens;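 also: cells exposed to compound for 48 hours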
[1] = HEK293 Cytotoxicity Assay Measured in Cell-Based System Using Plate Reader - 7071-01_Inhibitor_Dose_CherryPick_Activity_Set2.; assay type: functional
[2] = biological target: T1, Oxysterols receptor LXR-beta (Homo sapiens, UniProt P55055); assay type: functional, cell-based;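 also: agonist activity at LXR measured by a cell-based luminescence readout across a dose range, run as a counterscreen for daf-12 agonists; HEK293 cells with Gal4-LXR fusion and GAL4-driven luciferase reporter; potency for activation of Gal4-LXR reporter so compounds are agonists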
T1 sequence (P55055 whole entry): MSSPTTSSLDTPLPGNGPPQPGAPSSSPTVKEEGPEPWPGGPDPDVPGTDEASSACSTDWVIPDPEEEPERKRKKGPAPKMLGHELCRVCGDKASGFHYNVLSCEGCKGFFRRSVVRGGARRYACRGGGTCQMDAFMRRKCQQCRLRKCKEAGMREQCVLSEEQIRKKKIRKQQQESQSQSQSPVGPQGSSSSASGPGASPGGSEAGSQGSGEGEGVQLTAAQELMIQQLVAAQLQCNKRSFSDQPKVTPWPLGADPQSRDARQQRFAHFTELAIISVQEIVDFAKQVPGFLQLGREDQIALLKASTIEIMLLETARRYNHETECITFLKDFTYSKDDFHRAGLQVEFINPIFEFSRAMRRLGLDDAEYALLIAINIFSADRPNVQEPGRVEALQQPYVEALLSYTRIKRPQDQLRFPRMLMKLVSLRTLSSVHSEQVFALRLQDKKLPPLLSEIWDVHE

SUMO-activating enzyme [3] = biological target: T2, SUMO-activating enzyme (Homo sapiens, UniProt Q9UBT2); assay: inhibitors of in vitro SUMOylation cascade, primary screen, biochemical, HTRF, uHTS (AID 2006); assay type: protein-complex assay
[4] = biological target: 1-phosphatidylinositol 4,5-bisphosphate phosphodiesterase beta-3 (Homo sapiens, UniProt Q01970); assay: Fluorescence-based biochemical high throughput dose response assay to identify inhibitors of phospholipase C isozymes (PLC-B3).
[5] = biological target: Luciferin 4-monooxygenase (Photinus pyralis, UniProt P08659); assay: firefly luciferase enzyme inhibitors, dose response, biochemical, luminescence (AID 1891)
[6] = Luminescence Cell-Based Dose Confirmation HTS to Identify Inhibitors of Platelet Dense Granule Release. [Related pubchem assays: 1663 (Primary HTS), 1678 (Summary of Project)]; assay type: functional
[7] = biological target: Heat shock protein HSP 90-alpha (Homo sapiens, UniProt P07900); assay type: functional, organism-based
SUMO-activating enzyme [8] = biological target: T2, SUMO-activating enzyme; assay: SUMOylation inhibitor hit validation, confirmation, SUMOylation inhibitor project, biochemical, AlphaScreen (AID 2018); assay type: functional
[9] = biological target: 1-phosphatidylinositol 4,5-bisphosphate phosphodiesterase gamma-1 (Homo sapiens, UniProt P19174); assay: Counterscreen for inhibitors of phospholipase C isozymes (PLC-B3): Fluorescence-based biochemical high throughput dose response assay to identify inhibitors of phospholipase C isozymes (PLC-gamma1).
Sequence of 1-phosphatidylinositol 4,5-bisphosphate phosphodiesterase gamma-1 (P19174 whole entry): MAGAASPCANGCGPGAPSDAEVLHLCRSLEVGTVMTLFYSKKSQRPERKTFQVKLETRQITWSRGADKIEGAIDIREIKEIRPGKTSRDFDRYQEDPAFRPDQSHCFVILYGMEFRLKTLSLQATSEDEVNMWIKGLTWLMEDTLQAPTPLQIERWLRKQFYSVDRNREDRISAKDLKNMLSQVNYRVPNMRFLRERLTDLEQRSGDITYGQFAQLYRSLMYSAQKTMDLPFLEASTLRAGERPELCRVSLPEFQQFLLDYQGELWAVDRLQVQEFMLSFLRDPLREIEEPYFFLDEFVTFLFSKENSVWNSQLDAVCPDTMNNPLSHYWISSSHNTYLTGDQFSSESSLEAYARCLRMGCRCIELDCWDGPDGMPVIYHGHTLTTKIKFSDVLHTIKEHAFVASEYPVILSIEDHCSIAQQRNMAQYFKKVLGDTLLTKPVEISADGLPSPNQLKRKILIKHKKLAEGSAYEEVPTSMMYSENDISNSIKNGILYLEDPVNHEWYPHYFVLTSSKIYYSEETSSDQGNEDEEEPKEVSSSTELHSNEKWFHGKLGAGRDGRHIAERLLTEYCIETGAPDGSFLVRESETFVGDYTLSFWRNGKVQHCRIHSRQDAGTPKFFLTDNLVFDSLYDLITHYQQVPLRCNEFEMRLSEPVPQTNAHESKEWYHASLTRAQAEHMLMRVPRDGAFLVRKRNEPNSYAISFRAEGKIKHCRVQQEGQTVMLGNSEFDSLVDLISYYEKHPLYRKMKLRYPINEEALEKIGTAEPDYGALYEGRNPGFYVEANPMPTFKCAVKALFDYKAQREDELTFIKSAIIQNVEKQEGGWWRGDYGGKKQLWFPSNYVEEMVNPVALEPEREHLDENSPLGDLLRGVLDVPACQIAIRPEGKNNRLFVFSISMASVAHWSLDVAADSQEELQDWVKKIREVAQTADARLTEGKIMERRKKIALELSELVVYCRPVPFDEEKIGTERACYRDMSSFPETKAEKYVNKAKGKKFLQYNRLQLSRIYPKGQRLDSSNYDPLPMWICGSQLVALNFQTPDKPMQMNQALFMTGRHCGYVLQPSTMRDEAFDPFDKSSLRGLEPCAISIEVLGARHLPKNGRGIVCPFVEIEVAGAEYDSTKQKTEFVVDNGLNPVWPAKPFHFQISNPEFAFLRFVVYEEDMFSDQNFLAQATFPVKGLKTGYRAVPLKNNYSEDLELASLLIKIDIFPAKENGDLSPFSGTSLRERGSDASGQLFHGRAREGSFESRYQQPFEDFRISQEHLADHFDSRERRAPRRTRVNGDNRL

T2 sequence (Q9UBE0 whole entry): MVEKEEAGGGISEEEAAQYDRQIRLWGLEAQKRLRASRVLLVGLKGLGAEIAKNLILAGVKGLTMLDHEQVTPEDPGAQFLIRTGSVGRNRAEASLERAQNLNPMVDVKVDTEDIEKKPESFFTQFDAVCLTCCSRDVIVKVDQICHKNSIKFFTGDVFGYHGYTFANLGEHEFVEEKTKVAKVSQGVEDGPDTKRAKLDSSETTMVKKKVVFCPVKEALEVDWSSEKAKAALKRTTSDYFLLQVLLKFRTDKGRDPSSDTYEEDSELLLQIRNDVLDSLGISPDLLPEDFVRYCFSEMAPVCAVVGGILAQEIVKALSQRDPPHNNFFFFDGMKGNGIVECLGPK
T2 sequence (Q9UBT2 whole entry): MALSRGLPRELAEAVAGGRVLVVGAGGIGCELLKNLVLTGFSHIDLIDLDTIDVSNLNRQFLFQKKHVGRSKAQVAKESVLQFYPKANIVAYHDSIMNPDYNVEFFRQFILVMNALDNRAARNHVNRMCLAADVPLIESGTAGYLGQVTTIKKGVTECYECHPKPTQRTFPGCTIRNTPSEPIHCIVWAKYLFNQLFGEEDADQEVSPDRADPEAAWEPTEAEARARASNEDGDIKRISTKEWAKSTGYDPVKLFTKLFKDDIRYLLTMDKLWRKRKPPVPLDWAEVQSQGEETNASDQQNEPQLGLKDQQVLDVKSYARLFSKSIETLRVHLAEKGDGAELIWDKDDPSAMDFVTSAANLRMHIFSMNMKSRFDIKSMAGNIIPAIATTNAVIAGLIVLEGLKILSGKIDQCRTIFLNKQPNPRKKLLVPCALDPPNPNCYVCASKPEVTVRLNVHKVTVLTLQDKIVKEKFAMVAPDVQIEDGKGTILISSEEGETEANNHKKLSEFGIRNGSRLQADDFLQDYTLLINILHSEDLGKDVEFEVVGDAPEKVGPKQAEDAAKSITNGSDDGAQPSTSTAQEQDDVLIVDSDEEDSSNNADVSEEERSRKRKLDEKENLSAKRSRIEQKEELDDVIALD
Sequence of 1-phosphatidylinositol 4,5-bisphosphate phosphodiesterase beta-3 (Q01970 whole entry): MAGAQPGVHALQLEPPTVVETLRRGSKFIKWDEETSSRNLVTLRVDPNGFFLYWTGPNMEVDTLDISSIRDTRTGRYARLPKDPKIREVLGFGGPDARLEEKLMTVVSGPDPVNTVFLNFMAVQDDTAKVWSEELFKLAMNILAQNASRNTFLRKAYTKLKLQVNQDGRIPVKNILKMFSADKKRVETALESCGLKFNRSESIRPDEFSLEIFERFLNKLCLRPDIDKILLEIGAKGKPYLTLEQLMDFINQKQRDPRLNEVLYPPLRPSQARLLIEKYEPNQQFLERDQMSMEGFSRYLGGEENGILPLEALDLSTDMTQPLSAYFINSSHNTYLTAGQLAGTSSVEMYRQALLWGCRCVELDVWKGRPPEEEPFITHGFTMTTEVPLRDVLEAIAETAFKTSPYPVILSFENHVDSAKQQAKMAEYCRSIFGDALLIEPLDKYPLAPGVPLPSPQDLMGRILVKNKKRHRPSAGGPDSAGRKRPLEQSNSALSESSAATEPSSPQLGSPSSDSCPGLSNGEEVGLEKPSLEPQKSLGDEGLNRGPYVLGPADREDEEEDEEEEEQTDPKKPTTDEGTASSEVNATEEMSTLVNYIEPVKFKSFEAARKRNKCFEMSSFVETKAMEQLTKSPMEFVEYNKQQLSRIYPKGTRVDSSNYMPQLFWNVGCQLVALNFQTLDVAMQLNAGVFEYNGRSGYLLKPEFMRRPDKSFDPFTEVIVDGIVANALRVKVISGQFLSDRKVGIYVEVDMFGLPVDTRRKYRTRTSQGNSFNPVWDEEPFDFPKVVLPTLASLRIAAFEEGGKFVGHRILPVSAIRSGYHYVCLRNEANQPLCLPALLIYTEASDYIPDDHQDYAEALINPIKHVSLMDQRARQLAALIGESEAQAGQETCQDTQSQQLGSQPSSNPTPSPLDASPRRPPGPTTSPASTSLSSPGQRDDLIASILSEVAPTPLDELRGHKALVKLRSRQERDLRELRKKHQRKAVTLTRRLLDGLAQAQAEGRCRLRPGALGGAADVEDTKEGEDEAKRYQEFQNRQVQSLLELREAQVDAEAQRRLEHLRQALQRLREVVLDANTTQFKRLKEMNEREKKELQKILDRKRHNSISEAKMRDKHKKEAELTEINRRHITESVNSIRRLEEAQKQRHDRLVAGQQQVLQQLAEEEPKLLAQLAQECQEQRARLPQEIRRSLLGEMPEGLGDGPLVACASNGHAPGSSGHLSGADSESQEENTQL
Sequence of Luciferin 4-monooxygenase (P08659 whole entry): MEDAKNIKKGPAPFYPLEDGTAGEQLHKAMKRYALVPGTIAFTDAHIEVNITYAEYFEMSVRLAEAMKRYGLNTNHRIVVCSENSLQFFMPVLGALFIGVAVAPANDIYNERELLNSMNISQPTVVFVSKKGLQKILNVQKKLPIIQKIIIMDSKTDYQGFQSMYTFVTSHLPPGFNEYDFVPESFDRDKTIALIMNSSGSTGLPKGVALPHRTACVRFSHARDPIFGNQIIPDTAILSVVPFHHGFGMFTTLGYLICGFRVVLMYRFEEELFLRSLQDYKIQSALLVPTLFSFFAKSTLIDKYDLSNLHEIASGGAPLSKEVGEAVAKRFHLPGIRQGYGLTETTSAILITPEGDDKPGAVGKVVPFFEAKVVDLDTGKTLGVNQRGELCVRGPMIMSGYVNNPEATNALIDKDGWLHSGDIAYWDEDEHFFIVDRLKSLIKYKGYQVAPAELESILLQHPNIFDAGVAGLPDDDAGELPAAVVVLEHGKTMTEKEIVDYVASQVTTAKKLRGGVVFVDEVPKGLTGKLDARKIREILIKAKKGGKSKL

**Q.** Which AC50 (HEK293) does the source give for `O=C(Nc1ccccc1)N1CCCCN2[C@H](C1)[C@H](c1ccc(C#CC3CC3)cc1)[C@@H]2CO` here?
**A.** 40.1 µM (active)

**Q.** What about the AC50 [1] of the same molecule?
**A.** 40.1 µM (active)

**Q.** With `Cc1ccc2nc(C)/c(=N\O)c(C)nc2c1` as the molecule, how does the EC50 [2] read?
**A.** > 67.6 µM (inactive)

**Q.** Which results are given for `Nc1ncnc2c1ncn2[C@@H]1O[C@H](COP(=O)(O)O)[C@@H](O)[C@@H]1O`?
**A.** IC50 (SUMO-activating enzyme [3]): 16.6 µM (active); IC50 [4]: > 122 µM (inactive); EC50 [5]: 1.08 µM (active); EC50 [6]: 0.946 µM (active); AC50 [7]: 1.92 µM (active); IC50 (SUMO-activating enzyme [8]): 7.95 µM (active); IC50 [9]: 8.71 µM (active)
